pIC50: −log10 of the molar value. In brackets after ≈: the same amount, converted by molar mass. Read-outs that look alike come from different tables or passages of the source.

By pIC50 is commonly meant −log10 of the IC50, conventionally taken in molar units. By melting point is commonly meant the temperature of the solid-liquid transition. By IC50 is commonly meant the midpoint of a concentration-inhibition curve. By solubility is commonly meant the dissolved amount per volume that the medium holds.

The target of one data set is PI3K delta (Homo sapiens, UniProt O00329). The data set can be described thus: Kinase-Glo Luminescent Kinase Assay, PI3K delta. The format is biochemical. Background: In Kinase-Glo more light means more ATP remaining.
Chain of PI3K delta (O00329 whole entry): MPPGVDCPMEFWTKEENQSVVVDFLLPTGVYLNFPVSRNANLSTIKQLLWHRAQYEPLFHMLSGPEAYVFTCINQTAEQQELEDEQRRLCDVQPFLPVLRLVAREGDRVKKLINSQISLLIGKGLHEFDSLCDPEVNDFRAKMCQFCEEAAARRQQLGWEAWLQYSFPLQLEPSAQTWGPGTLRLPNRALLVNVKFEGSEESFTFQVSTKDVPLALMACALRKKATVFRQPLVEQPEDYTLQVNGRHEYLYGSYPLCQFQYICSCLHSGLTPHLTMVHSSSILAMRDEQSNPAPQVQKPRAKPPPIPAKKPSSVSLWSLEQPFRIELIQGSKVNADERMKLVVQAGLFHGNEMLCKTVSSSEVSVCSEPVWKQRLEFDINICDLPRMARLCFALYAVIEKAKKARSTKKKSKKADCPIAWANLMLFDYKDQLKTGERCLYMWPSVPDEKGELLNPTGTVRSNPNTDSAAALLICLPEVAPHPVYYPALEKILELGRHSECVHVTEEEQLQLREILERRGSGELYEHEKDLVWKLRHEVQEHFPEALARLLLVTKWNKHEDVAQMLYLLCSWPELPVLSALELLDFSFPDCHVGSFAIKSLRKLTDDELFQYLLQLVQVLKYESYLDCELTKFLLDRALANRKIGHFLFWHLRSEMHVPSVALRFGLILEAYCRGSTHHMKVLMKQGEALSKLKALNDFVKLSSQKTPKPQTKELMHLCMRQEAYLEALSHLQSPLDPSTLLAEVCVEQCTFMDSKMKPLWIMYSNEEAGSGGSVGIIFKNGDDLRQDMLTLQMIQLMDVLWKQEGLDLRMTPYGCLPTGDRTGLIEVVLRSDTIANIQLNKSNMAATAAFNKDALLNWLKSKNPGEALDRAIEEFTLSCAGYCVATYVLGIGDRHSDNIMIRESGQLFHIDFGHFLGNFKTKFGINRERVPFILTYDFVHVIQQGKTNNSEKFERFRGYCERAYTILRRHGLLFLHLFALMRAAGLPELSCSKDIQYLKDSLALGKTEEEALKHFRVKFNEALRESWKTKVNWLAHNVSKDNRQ
Chain of PI3K delta (P27986 whole entry partner): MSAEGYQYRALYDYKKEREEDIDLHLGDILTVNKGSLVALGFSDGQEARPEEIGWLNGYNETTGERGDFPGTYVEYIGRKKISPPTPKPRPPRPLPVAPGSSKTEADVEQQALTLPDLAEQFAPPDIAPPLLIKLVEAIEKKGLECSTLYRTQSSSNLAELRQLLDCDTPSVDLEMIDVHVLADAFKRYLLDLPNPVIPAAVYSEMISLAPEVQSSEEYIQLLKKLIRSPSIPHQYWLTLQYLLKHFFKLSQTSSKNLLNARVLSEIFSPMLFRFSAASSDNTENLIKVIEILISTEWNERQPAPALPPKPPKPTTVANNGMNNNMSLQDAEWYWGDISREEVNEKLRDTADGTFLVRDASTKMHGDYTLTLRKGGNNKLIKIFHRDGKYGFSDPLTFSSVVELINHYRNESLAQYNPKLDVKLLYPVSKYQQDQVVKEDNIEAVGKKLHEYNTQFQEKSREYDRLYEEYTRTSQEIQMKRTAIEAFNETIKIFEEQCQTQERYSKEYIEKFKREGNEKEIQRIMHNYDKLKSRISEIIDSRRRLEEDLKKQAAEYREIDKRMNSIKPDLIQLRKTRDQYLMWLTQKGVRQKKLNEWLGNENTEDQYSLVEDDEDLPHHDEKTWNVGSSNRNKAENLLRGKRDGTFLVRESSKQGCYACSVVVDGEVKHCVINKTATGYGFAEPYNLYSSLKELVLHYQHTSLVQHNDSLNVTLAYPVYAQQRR
A further data set concerns the target mTOR (Homo sapiens, UniProt P42345). Put plainly: Lance Ultra Assay, mTOR. The class given is biochemical.
The subject of data set [1] is U87MG (human brain star glioblastoma). Put plainly: MTT assay, U87MG. Conditions: U-87 MG, 72 h. The format is cell-based. As to the method:
(§1) 1. Sample preparation: After dissolved with DMSO (Merck), PBS (−) was added to make 1000 μg/ml solution or a uniform suspension, and then diluted with PBS (−) containing the DMSO. Doxorubicin (DOX) was used as the positive control drug.
(§2) 2. Cell Line • 1) A549 (human lung cancer cells); 2) HCT116 (human colon cancer cells); 3) HepG2 (human hepatoma cells); 4) ZR-75-30 (human breast cancer cells); 5) U87MG (human brain star glioblastoma)
(§3) DMEM+5-10% FBS+double resistant
(§4) MTT assay. 100 μl cell suspension was added at a concentration of 4˜5×10^4 cells/ml to each well of a 96-well plate, and was set at 37° C., 5% CO2 in the incubator. After 24 h, the sample solution was added, 10 μl/hole, double wells were set, 37° C., acting for 72 h at 5% CO2. […] of 5 mg/ml was added to each well, the dissolving liquid was added after acted for 4 h, 100 μl/hole, kept in the incubator, and read 570 nm OD with MK-2 automatic microplate reader after dissolution.
A general note: Tetrazolium assays rely on reduction of a dye to a coloured formazan, in cell work by metabolically active cells.

Data set [2] concerns HepG2 (human hepatoma cells). Put plainly: MTT assay, HepG2. The format is cell-based. The note with it: 72 h. How it is done: as §1, §2, §3, §4
Data set [3] concerns A549 (human lung cancer cells). Put plainly: MTT assay, A549. The class given is cell-based. The note with it: 72 h. How it is done: as §1, §2, §3, §4
A further data set has as its target PI3Kβ (Homo sapiens, UniProt P42338). The data set can be described thus: ADP-Glo Luminescent Kinase Assay, PI3Kβ. Conditions: read-out: IC50 on PI3K beta. The format is biochemical. (In general: ADP-Glo turns the ADP formed in a reaction into a luminescent signal.)
The test system of data set [4] is ZR-75-30 (human breast cancer cells). The data set can be described thus: MTT assay, ZR-75-30. The note with it: 72 h. The format is cell-based. How it is done: as §1, §2, §3, §4
Data set [5] concerns HCT116 (human colon cancer cells). Put plainly: MTT assay, HCT116. The class given is cell-based. Conditions: HCT-116, 72 h.
A further data set addresses PI3Kγ (Homo sapiens, UniProt P48736). The data set can be described thus: ADP-Glo Luminescent Kinase Assay, PI3Kγ. The class given is biochemical. The note with it: read-out: IC50 on PI3K gamma.
The next data set addresses PI3Kα (Homo sapiens, UniProt P42336). The data set can be described thus: Kinase-Glo Luminescent Kinase Assay, PI3Kα. The format is biochemical.
A further data set relates to SF539. The data set can be described thus: NCI cytotoxicity test, SF539. The format is cell-based. The note with it: Homo sapiens, SF-539. From the text: (§5) Cytotoxicity Test of Compound 9, 10 and 17 on 60 Kinds of Human Cancer Cell Lines from the US National Cancer Institute
The next data set has as its system COLO205. Put plainly: NCI cytotoxicity test, COLO205. The format is cell-based. Conditions: Homo sapiens, COLO 205.
Excerpt: as §5

Another data set has as its system five human tumor cells. Put plainly: MTT assay, five human tumor cells (summary in words). The class given is cell-based. Conditions: A549, HCT116, HepG2, ZR-75-30, U87MG. As to the method:
as §1, §2, §3, §4

Another data set deals with MCF7. The data set can be described thus: NCI cytotoxicity test, MCF7. The format is cell-based. The note with it: Homo sapiens.
Excerpt: as §5

A further data set concerns SN12C. Put plainly: NCI cytotoxicity test, SN12C. The format is cell-based. Conditions: Homo sapiens.
Excerpt: as §5

A further data set has as its system OVCAR3. Put plainly: NCI cytotoxicity test, OVCAR3. Conditions: Homo sapiens, OVCAR-3. The class given is cell-based.
Excerpt: as §5

Data set [6] concerns 60 kinds of human cancer cell lines. Put plainly: Cytotoxicity test on 60 kinds of human cancer cell lines from the US National Cancer Institute. The class given is cell-based.
Excerpt: as §5

The subject of a further data set is PC3. Put plainly: NCI cytotoxicity test, PC3. The format is cell-based. Conditions: Homo sapiens, PC-3.
Excerpt: as §5

The next data set concerns A549. Put plainly: NCI cytotoxicity test, A549. The class given is cell-based. The note with it: Homo sapiens.
Excerpt: as §5

Data set [7] has as its system human lung carcinoma A549 xenografts. The data set can be described thus: In vivo efficacy on human lung carcinoma A549 xenografts in nude mice. More on the design: species or system BALB/C nude mice. Conditions: ig, GSK2126458 3 mg/kg, compound 9 10 mg/kg. From the text: Strain: BALB/C nude mice (SPF grade), Source: Shanghai Slac laboratory animal limited liability company, the production license number: SCXK (Shanghai) 2007-0005, the using license number: SYXK (Shanghai) 2009-0068, gender: male, weight: 18-20 g, the number of animals per group: 6.
A549 solid tumors which were well-grown were taken, cut to uniform bits of about 3 mm size under aseptic condition, every bit was inoculated to each mouse subcutaneously in the right armpit with trocar, and randomly divided into three groups, each treatment was:
1) Control (saline), gavage, the dose 25 ml/kg, 14 days;
3) Compound 9, gavage, the dose 10 mg/kg, 14 days;
Regrouped according to tumor size on the 13th day after inoculation, the animals of which tumor size is too large and too small were eliminated, the average tumor volume of each group are basically the same. Administration was carried out according to the above regimen; the dosing volume was 0.5 ml/20 g body weight. The axis (a), shorter diameter (b) of tumor was measured 2 times a week with an electronic digital caliper, calculate formula of tumor volume (tumor volume, TV) is as follows: TV=1/2×a×b2, calculate formula of relative tumor volume (relative tumor volume, RTV), is as follows: RTV=Vt/Vo, wherein Vo is the tumor volume measured at the time when dividing cages (i.e. dl), Vt is the tumor volume measured each time. […] T test was conducted. Animals were sacrificed 30 days after inoculation, dissected and the tumor mass were taken, tumor weight was measured.

Data set [8] in a line: Solubility test in buffer solution at pH=1. The format is physicochemical. The note with it: pH=1 buffer solution, simulated gastric fluid, thermodynamic from solid; buffer solution pH=1. As to the method:
Compound 9 1.02 mg was precisely weighed and placed in 1.5 mL of EP tube, and 10 uL pH=1 buffer solution was added, vortexed for 30S and ultrasonic for 20 min. There was a lot of visible turbidity after that.
20 uL buffer was added and ultrasounded and the solution was found still turbid. Turbidity reduced after the solution was diluted to 1 mL and vortexed, while there still exist residual after diluted to 2 mL.

Setting [9] is: on the 60 kinds of tumor cells, read-out: Average GI50.

Chain of PI3Kβ (P42338 whole entry, species assumed): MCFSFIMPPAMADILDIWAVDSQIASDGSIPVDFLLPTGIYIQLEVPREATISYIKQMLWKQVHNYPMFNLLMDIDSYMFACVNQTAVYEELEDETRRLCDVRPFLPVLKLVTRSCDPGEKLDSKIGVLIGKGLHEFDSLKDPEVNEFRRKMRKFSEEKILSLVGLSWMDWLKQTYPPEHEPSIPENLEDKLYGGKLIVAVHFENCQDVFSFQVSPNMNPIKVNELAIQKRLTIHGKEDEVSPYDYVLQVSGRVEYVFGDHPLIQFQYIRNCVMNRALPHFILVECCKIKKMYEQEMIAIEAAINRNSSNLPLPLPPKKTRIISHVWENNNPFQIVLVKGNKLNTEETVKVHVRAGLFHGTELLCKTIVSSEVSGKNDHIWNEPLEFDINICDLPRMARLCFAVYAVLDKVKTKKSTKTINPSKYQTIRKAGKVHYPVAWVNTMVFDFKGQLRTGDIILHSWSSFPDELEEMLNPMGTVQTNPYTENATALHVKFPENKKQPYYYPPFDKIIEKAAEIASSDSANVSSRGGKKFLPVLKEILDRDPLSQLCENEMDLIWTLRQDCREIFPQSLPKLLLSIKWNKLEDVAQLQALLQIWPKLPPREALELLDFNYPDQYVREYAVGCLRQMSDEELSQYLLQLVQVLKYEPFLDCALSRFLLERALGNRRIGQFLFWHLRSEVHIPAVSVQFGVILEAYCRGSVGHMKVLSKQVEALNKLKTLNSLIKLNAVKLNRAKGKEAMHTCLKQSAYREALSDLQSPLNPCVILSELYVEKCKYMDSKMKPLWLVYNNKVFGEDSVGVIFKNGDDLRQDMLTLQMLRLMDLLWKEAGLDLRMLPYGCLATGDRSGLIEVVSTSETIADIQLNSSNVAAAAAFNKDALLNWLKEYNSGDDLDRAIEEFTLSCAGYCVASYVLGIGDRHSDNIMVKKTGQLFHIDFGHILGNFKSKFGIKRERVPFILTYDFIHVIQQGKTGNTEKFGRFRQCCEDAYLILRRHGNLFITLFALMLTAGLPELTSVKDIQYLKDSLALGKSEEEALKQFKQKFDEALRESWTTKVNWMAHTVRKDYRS
Chain of PI3Kβ (P27986 whole entry partner, species assumed): as the sequence (P27986 whole entry partner) above
Chain of PI3Kγ (P48736 whole entry, species assumed): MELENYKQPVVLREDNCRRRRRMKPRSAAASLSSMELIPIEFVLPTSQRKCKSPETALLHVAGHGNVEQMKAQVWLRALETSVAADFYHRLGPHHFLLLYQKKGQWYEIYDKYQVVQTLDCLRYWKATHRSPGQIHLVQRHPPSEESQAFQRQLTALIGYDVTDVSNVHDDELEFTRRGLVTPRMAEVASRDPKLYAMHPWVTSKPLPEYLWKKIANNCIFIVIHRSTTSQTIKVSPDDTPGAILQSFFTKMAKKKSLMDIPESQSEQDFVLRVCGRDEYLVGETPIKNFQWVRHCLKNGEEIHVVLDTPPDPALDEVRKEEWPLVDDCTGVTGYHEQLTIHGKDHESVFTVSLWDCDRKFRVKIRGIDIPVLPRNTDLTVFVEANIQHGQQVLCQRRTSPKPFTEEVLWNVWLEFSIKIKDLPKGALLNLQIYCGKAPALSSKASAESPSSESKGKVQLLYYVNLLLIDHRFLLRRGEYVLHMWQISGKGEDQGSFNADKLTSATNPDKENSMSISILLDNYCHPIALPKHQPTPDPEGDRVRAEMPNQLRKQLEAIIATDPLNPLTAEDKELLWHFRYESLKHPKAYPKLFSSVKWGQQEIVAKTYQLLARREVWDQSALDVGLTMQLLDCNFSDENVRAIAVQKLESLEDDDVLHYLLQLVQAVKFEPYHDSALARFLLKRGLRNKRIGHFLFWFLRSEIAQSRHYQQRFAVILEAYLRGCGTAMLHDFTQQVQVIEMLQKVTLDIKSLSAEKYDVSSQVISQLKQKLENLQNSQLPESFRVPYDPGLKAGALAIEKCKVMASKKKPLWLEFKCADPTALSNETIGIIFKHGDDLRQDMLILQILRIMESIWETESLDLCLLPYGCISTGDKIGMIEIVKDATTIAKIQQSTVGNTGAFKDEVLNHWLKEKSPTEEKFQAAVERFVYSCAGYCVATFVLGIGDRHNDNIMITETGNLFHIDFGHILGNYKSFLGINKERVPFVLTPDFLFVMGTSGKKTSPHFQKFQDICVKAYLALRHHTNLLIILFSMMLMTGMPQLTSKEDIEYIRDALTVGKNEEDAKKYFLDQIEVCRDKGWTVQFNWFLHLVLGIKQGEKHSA
Chain of PI3Kα (P42336 whole entry, species assumed): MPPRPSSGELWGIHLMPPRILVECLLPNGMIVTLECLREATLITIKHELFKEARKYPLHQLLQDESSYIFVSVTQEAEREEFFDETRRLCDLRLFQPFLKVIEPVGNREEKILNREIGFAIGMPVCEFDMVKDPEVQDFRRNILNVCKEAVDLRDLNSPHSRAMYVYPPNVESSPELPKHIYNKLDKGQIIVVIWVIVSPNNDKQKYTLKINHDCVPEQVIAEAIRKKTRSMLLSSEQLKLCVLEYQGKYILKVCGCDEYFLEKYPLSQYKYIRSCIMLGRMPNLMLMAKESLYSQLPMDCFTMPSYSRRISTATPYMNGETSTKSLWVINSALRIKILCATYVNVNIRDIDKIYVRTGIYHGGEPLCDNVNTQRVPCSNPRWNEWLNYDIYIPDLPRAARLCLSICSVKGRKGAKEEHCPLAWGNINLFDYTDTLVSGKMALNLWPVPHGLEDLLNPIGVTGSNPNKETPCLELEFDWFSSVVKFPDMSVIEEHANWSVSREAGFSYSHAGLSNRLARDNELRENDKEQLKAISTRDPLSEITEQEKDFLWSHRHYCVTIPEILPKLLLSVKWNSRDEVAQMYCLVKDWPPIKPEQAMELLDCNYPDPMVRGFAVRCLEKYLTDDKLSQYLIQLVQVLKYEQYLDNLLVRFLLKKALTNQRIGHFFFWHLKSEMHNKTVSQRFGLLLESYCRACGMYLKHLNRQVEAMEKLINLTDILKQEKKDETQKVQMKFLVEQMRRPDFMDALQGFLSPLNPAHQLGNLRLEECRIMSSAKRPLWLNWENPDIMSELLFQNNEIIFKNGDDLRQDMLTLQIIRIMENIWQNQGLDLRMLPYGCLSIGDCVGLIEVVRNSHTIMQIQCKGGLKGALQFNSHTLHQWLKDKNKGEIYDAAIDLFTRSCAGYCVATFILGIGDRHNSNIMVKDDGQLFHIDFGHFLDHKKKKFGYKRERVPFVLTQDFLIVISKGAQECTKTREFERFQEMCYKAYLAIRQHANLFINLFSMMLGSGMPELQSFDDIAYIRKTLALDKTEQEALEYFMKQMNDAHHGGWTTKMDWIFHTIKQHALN
Chain of PI3Kα (P27986 whole entry partner, species assumed): as the sequence (P27986 whole entry partner) above

The compound `COc1ncc(-c2ccc3nccc(-n4cncn4)c3c2)cc1NS(=O)(=O)c1ccc(F)cc1F` [Compound 1, N-(5-(4-(1H-1,2,4-triazole-1-yl)quinolin-6-yl)-2-methoxypyridine-3-yl)-2,4-difluorobenzenesulfonamide] showed a melting point of 123 to 124 °C. Further, at PI3K delta, the pIC50 was 8.59. The compound further had a pIC50 at mTOR of 8.96. The compound further had an IC50 in data set [1] of 0.475 µg/mL (≈ 0.961 µM). This compound registered an IC50 in data set [2] of 1.37 µg/mL (≈ 2.77 µM). In data set [3], this compound yielded an IC50 of 0.00819 µg/mL (≈ 0.0166 µM). Moreover, the pIC50 at PI3Kβ was 8.44. Besides, the IC50 in [4] was 0.454 µg/mL (≈ 0.918 µM). Further, in data set [5], the IC50 was 11 ng/mL (≈ 0.0222 µM). At PI3Kγ, the pIC50 was 9.33. For the same compound, the pIC50 on PI3Kα was 9.26.

Compound `CCOC(=O)c1ccc(-c2ccnc3ccc(-c4cnc(OC)c(NS(=O)(=O)c5ccc(F)cc5F)c4)cc23)cc1` [Compound 8, 4-(6-(5-(2,4-difluorobenzenesulfonamideyl)-6-methoxypyridine-3-yl)quinolin-4-yl) ethyl benzoate] had a melting point of 90 to 92 °C. Besides, the IC50 in [1] amounted to 11.7 µg/mL (≈ 20.3 µM). This compound also showed an IC50 in data set [2] of 2.65 µg/mL (≈ 4.6 µM). In [3], it took 0.043 µg/mL (≈ 0.0747 µM) to reach half-maximal inhibition (IC50). In [4], this compound returned an IC50 of 2.45 µg/mL (≈ 4.26 µM). The compound also came in with an IC50 in data set [5] of 235 ng/mL (≈ 0.408 µM). The compound also gave a pIC50 against PI3Kα of 8.59.

`COc1ncc(-c2ccc3nccc(-c4ccc(Cn5cncn5)cc4)c3c2)cc1NS(=O)(=O)c1ccc(F)cc1F` [Compound 10, N-(5-(4-(4-((1H-1,2,4-triazole-1-yl)methyl)phenyl)quinolin-6-yl)-2-methoxypyridine-3-yl)-2,4-difluorobenzenesulfonamide]: the melting point is 121 to 123 °C. The compound also had a pIC50 against PI3K delta of 8.55. The GI50 in the data set on SF539 is less than 10 nM. At mTOR, this compound showed a negative-log IC50 (pIC50) of 8.96. Besides, the GI50 in the data set on COLO205 was less than 10 nM. The compound also yielded an IC50 in data set [1] of 0.129 µg/mL (≈ 0.221 µM). This compound registered a half-maximal inhibitory concentration (IC50) in data set [3] of 0.00927 µg/mL (≈ 0.0159 µM). In the data set with five human tumor cells, the “in vitro proliferation inhibition (in words)” value is listed as “high in vitro proliferation inhibition”. Also, in the data set on MCF7, the GI50 was less than 10 nM. Also, the pIC50 at PI3Kβ is 8.77. The compound further gave a GI50 in the data set with SN12C of less than 10 nM. For the same compound, the half-inhibitory concentration (IC50) in data set [5] was 5.07 ng/mL (≈ 0.00867 µM). Besides, the GI50 in the data set on OVCAR3 is less than 10 nM. The pIC50 on PI3Kγ was 9.13. Further, the GI50 in data set [6] (on the 36 tumor cell lines, read-out: average half growth inhibitory concentration (GI50)) was less than 10 nM. Also, the GI50 in data set [6] (setting [9]) worked out at 15.1 nM. The compound also came in with a GI50 in the data set with PC3 of less than 10 nM. Also, on PI3Kα, the pIC50 is 9.19. The compound further showed a GI50 with A549 of less than 10 nM.

`COc1ncc(-c2ccc3nccc(-c4ccc(CN(C)CCO)cc4)c3c2)cc1NS(=O)(=O)c1ccc(F)cc1F` [Compound 17, N-(5-(4-(4-(((2-hydroxyethyl)(methyl)amino)methyl)phenyl)quinolin-6-yl)-2-methoxypyridine-3-yl)-2,4-difluorobenzenesulfonamide] registered a melting point of 84 to 85 °C. This compound had a pIC50 against PI3K delta of 8.47. In addition, the GI50 in the data set on SF539 was less than 10 nM. The pIC50 on mTOR is 8.66. For the same compound, the GI50 in the data set with COLO205 was less than 10 nM. Also, in data set [1], the midpoint of inhibition, the IC50, lay at 0.092 µg/mL (≈ 0.156 µM). Moreover, in [3], the midpoint of inhibition, the IC50, lay at 0.012 µg/mL (≈ 0.0203 µM). In the data set on five human tumor cells, the “in vitro proliferation inhibition (in words)” value is listed as “high in vitro proliferation inhibition”. The GI50 with MCF7 was less than 10 nM. Moreover, the pIC50 at PI3Kβ is 8.96. This compound also came in with a GI50 in the data set on SN12C of less than 10 nM. Further, the IC50 in [5] turned out to be 2.8 ng/mL (≈ 0.00474 µM). In the data set with OVCAR3, this compound had a GI50 of less than 10 nM. The pIC50 on PI3Kγ was 8.96. For the same compound, the GI50 in data set [6] (on the 38 tumor cell lines, read-out: average half growth inhibitory concentration (GI50)) was less than 10 nM. For the same compound, the GI50 in data set [6] (setting [9]) worked out at 15.8 nM. This compound registered a GI50 in the data set on PC3 of less than 10 nM. This compound also gave a pIC50 on PI3Kα of 9.23. The same compound came in with a GI50 in the data set with A549 of less than 10 nM.

`COc1ncc(-c2ccc3nccc(-c4ccnnc4)c3c2)cc1NS(=O)(=O)c1ccc(F)cc1F` [GSK2126458, reference compound]: the figures for the IC50 in [1] and in data set [3] were 0.537 µg/mL (≈ 1.06 µM) and 0.014 µg/mL (≈ 0.0277 µM), respectively. Moreover, in data set [7], the “Tumor Inhibition rate %” value stood at 65.93%. Besides, the “Animal wight (g) (tumor removed)” value in data set [7] (at end) is 21.41 ± 1.49 g. Also, the “RTV (d18) x ± SD” value in data set [7] (d18) was determined as 6.91 ± 1.97. Also, on PI3Kγ, the pIC50 was 9.21. In data set [8], this compound had a solubility at 20 min of 200 µg/mL (≈ 396 µM).

The record behind these values is patent US20160168118A1, “N-(5-QUINOLIN-6-YL)PYRIDIN-3-YL) BENZSULFAMIDE DERIVATIVES, PREPARATION METHOD AND THERAPEUTIC USE THEREOF” (SECOND MILITARY MEDICAL UNIVERSITY, PLA, priority 2012, published 2016).
